Measured values reported in patent US20260317324A1, “BIFUNCTIONAL COMPOUNDS FOR DEGRADING BRAF VIA UBIQUITIN PROTEOSOME PATHWAY” (Nurix Therapeutics, Inc., priority 2023, published 2026).

Tests used:
Format in all cases: cell-based
BRAF D594G = biological target: T1, BRAF D594G (Homo sapiens, UniProt P15056, D594G); assay: BRAF HiBiT degradation assay, C-terminal HiBiT-tagged BRAF D594G overexpressed in HCT-116 BRAF−/− cells (clone 63), Nano-Glo HiBiT Lytic assay; settings: BRAF D594G (Class 3), HCT-116 BRAF−/− cells; for DC50: DC50 at 50% degradation; for Dmax: observed Dmax relative to DMSO control
T1 construct: Horizon Discovery (HCT-116 BRAF−/− cells); host or cells: HCT-116 BRAF−/− cells, clone 63, lentiviral transduction
T1 sequence (P15056 whole entry D594G): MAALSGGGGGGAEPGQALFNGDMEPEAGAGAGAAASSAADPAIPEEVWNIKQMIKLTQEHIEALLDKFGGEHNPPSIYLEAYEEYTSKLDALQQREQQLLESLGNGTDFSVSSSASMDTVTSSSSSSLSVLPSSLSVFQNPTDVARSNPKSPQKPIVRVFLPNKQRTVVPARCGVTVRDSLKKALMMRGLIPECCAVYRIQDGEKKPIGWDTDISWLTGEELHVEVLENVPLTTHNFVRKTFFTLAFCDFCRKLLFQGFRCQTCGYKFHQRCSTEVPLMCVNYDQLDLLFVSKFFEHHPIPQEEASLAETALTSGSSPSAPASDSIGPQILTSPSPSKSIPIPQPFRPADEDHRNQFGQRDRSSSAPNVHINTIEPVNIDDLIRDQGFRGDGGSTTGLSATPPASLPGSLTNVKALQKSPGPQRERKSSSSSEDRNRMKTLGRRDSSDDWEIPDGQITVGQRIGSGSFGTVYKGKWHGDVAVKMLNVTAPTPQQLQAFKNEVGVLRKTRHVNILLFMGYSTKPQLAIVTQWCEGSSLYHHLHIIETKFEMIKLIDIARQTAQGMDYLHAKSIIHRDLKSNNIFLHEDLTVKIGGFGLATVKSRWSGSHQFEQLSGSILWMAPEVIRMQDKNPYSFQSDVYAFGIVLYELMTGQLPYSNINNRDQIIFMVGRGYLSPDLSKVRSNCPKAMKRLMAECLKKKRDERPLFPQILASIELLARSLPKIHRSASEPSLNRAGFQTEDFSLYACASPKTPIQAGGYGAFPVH
Summary of the method: (§1)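 HCT-116 BRAF−/− cells stably expressing the tagged mutant were seeded at 3,000 cells/well and grown 24 h at 37 °C before an 11-point half-log series from 1 μM to 0.01 nM, run in duplicate at 0.2% DMSO. Lytic HiBiT luminescence gave % protein remaining versus DMSO controls; DC50 was the fitted concentration at 50%.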

BRAF G466V = biological target: T2, BRAF G466V (Homo sapiens, UniProt P15056, G466V); assay: BRAF HiBiT degradation assay, C-terminal HiBiT-tagged BRAF G466V overexpressed in HCT-116 BRAF−/− cells (clone 8), Nano-Glo HiBiT Lytic assay; settings: BRAF G466V (Class 3), HCT-116 BRAF−/− cells; for DC50: DC50 at 50% degradation; for Dmax: observed Dmax relative to DMSO control
T2 construct: Horizon Discovery (HCT-116 BRAF−/− cells); host or cells: HCT-116 BRAF−/− cells, clone 8, lentiviral transduction
T2 sequence (P15056 whole entry G466V): as the sequence (P15056 whole entry D594G) above, with G466V, G594D counted along it
Summary of the method: as §1

BRAF V600E = biological target: T3, BRAF V600E (Homo sapiens, UniProt P15056, V600E); assay: BRAF HiBiT degradation assay, C-terminal HiBiT-tagged BRAF V600E A375 cells (clone 1F10), Nano-Glo HiBiT Lytic assay; settings: A375 (BRAF V600E, Class 1); for DC50: DC50 at 50% degradation; for Dmax: A-375, observed Dmax, % protein degraded relative to DMSO control
T3 construct: endogenous C-terminal HiBiT fusion tag on BRAF V600E allele; endogenous in cells; host or cells: A375 clone 1F10 (CRISPR-Cas9 knock-in of the HiBiT tag; parental A375 from ATCC)
T3 sequence (P15056 whole entry V600E, the tested form may be a part): as the sequence (P15056 whole entry D594G) above, with G594D, V600E counted along it
Summary of the method: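 A375 cells with CRISPR knock-in C-terminal HiBiT on endogenous BRAF V600E (clone 1F10) were seeded and cultured 24 h at 37 °C, then dosed with an 11-point half-log series (1 μM to 0.01 nM, duplicate, 0.2% DMSO). Lytic HiBiT luminescence gave % protein remaining; DC50 was the fitted concentration at 50%.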

BRAF G469A = biological target: T4, BRAF G469A (Homo sapiens, UniProt P15056, G469A); assay: BRAF HiBiT degradation assay, C-terminal HiBiT-tagged BRAF G469A overexpressed in HCT-116 BRAF−/− cells (clone 34), Nano-Glo HiBiT Lytic assay; settings: BRAF G469A (Class 2), HCT-116 BRAF−/− cells; for DC50: DC50 at 50% degradation; for Dmax: observed Dmax relative to DMSO control
T4 construct: Horizon Discovery (HCT-116 BRAF−/− cells); host or cells: HCT-116 BRAF−/− cells, clone 34, lentiviral transduction
T4 sequence (P15056 whole entry G469A): as the sequence (P15056 whole entry D594G) above, with G469A, G594D counted along it
Summary of the method: as §1

DC50 (BRAF D594G) [nM]	Dmax (BRAF D594G) [%]	DC50 (BRAF G466V) [nM]	Dmax (BRAF G466V) [%]	DC50 (BRAF V600E) [nM]	Dmax (BRAF V600E) [%]	DC50 (BRAF G469A) [nM]	Dmax (BRAF G469A) [%]	SMILES
< 10	> 70	< 10	> 70	< 10	> 70	10 to 50	> 70	C[C@@H]1CN(c2ccc(-n3cc(-c4cc(Cl)cc(NS(=O)(=O)N5CCCC5)c4F)c(-c4ccncc4)n3)nc2)CCN1CC1CCN(c2ccc([C@H]3CCC(=O)NC3=O)cn2)CC1 [Compound 325, N-[5-chloro-3-(1-{5-[(3R)-4-[(1-{5-[(3R)-2,6-dioxopiperidin-3-yl]pyridin-2-yl}piperidin-4-yl)methyl]-3-methylpiperazin-1-yl]pyridin-2-yl}-3-(pyridin-4-yl)-1H-pyrazol-4-yl)-2-fluorophenyl]pyrrolidine-1-sulfonamide]
< 10	> 70	< 10	> 70	< 10	> 70	10 to 50	30 to 70	C[C@@H]1CN(c2ccc(-n3cc(-c4cc(Cl)cc(NS(=O)(=O)N5CCCC5)c4F)c(-c4ccncc4)n3)nc2)CCN1CC1CCN(c2ccc([C@H]3CCC(=O)NC3=O)cc2)CC1 [Compound 326, N-[5-chloro-3-(1-{5-[(3R)-4-[(1-{4-[(3R)-2,6-dioxopiperidin-3-yl]phenyl}piperidin-4-yl)methyl]-3-methylpiperazin-1-yl]pyridin-2-yl}-3-(pyridin-4-yl)-1H-pyrazol-4-yl)-2-fluorophenyl]pyrrolidine-1-sulfonamide]
< 10	30 to 70	< 10	> 70	< 10	> 70	< 10	> 70	O=C1CC[C@H](c2ccc(N3CCC(CN4CCN(c5ccc(-n6cc(-c7cc(Cl)cc(NS(=O)(=O)N8CC(F)C8)c7F)c(-c7ccncc7)n6)cc5)CC4)CC3)nc2)C(=O)N1 [Compound 331, N-{5-chloro-3-[1-(4-{4-[(1-{5-[(3R)-2,6-dioxopiperidin-3-yl]pyridin-2-yl}piperidin-4-yl)methyl]piperazin-1-yl}phenyl)-3-(pyridin-4-yl)-1H-pyrazol-4-yl]-2-fluorophenyl}-3-fluoroazetidine-1-sulfonamide]
< 10	30 to 70	< 10	> 70	< 10	> 70	< 10	30 to 70	O=C1CC[C@H](c2ccc(N3CCC(CN4CCN(c5ccc(-n6cc(-c7cc(Cl)cc(NS(=O)(=O)N8CC(F)C8)c7F)c(-c7ccncc7)n6)cc5)CC4)CC3)cc2)C(=O)N1 [Compound 333, N-{5-chloro-3-[1-(4-{4-[(1-{4-[(3R)-2,6-dioxopiperidin-3-yl]phenyl}piperidin-4-yl)methyl]piperazin-1-yl}phenyl)-3-(pyridin-4-yl)-1H-pyrazol-4-yl]-2-fluorophenyl}-3-fluoroazetidine-1-sulfonamide]
< 10	> 70	< 10	> 70	< 10	> 70	10 to 50	> 70	O=C1CC[C@H](c2ccc(N3CCC(CN4CCN(c5ccc(-n6cc(-c7cc(Cl)cc(NS(=O)(=O)N8CC[C@@H](F)C8)c7F)c(-c7ccncc7)n6)c(F)c5)CC4)CC3)nc2)C(=O)N1 [Compound 334, (3R)—N-{5-chloro-3-[1-(4-{4-[(1-{5-[(3R)-2,6-dioxopiperidin-3-yl]pyridin-2-yl}piperidin-4-yl)methyl]piperazin-1-yl}-2-fluorophenyl)-3-(pyridin-4-yl)-1H-pyrazol-4-yl]-2-fluorophenyl}-3-fluoropyrrolidine-1-sulfonamide]
< 10	> 70	< 10	> 70	< 10	> 70	10 to 50	> 70	O=C1CC[C@H](c2ccc(N3CCC(CN4CCN(c5ccc(-n6cc(-c7cc(Cl)cc(NS(=O)(=O)N8CC[C@@H](F)C8)c7F)c(-c7ccncc7)n6)c(F)c5)CC4)CC3)cc2)C(=O)N1 [Compound 336, (3R)—N-{5-chloro-3-[1-(4-{4-[(1-{4-[(3R)-2,6-dioxopiperidin-3-yl]phenyl}piperidin-4-yl)methyl]piperazin-1-yl}-2-fluorophenyl)-3-(pyridin-4-yl)-1H-pyrazol-4-yl]-2-fluorophenyl}-3-fluoropyrrolidine-1-sulfonamide]
< 10	30 to 70	< 10	> 70	< 10	> 70	< 10	30 to 70	O=C1CC[C@H](c2ccc(N3CCC(CN4CCN(c5ccc(-n6cc(-c7cc(Cl)cc(NS(=O)(=O)N8CC(F)C8)c7F)c(-c7ccncc7)n6)c(F)c5)CC4)CC3)cc2)C(=O)N1 [Compound 338, N-{5-chloro-3-[1-(4-{4-[(1-{4-[(3R)-2,6-dioxopiperidin-3-yl]phenyl}piperidin-4-yl)methyl]piperazin-1-yl}-2-fluorophenyl)-3-(pyridin-4-yl)-1H-pyrazol-4-yl]-2-fluorophenyl}-3-fluoroazetidine-1-sulfonamide]
10 to 50	30 to 70	< 10	30 to 70	< 10	> 70	> 500	< 30	O=C1CCN(c2ccc(N3CCC(CN4CCN(c5ccc(-n6cc(-c7cc(Cl)cc(NS(=O)(=O)N8CC(F)C8)c7F)c(-c7ccncc7)n6)c(F)c5)CC4)CC3)cc2)C(=O)N1 [Compound 339, N-[5-chloro-3-(1-{4-[4-({1-[4-(2,4-dioxo-1,3-diazinan-1-yl)phenyl]piperidin-4-yl}methyl)piperazin-1-yl]-2-fluorophenyl}-3-(pyridin-4-yl)-1H-pyrazol-4-yl)-2-fluorophenyl]-3-fluoroazetidine-1-sulfonamide]
< 10	> 70	< 10	> 70	< 10	> 70	< 10	> 70	O=C1CC[C@H](c2ccc(N3CCC(CN4CCN(c5ccc(-n6cc(-c7cc(Cl)cc(NS(=O)(=O)N8CCCC8)c7F)c(-c7ccncc7)n6)cc5)CC4)CC3)cc2F)C(=O)N1 [Compound 344, N-{5-chloro-3-[1-(4-{4-[(1-{4-[(3R)-2,6-dioxopiperidin-3-yl]-3-fluorophenyl}piperidin-4-yl)methyl]piperazin-1-yl}phenyl)-3-(pyridin-4-yl)-1H-pyrazol-4-yl]-2-fluorophenyl}pyrrolidine-1-sulfonamide]
> 500	< 30	> 500	30 to 70	< 10	> 70	> 500	< 30	O=C1CC[C@H](c2ccc(N3CCC(CN4CCCN(c5ccc(-n6cc(-c7cc(Cl)cc(NS(=O)(=O)N8CCCC8)c7F)c(-c7ccncc7)n6)c(F)c5)CC4)CC3)cc2)C(=O)N1 [Compound 346, N-{5-chloro-3-[1-(4-{4-[(1-{4-[(3R)-2,6-dioxopiperidin-3-yl]phenyl}piperidin-4-yl)methyl]-1,4-diazepan-1-yl}-2-fluorophenyl)-3-(pyridin-4-yl)-1H-pyrazol-4-yl]-2-fluorophenyl}pyrrolidine-1-sulfonamide]
< 10	> 70	< 10	> 70	< 10	> 70	< 10	> 70	O=C1CC[C@H](c2ccc(N3CCC(CN4CCN(c5ccc(-n6cc(-c7cc(C(F)F)cc(NS(=O)(=O)N8CCCC8)c7F)c(-c7ccncc7)n6)cc5)CC4)CC3)cc2)C(=O)N1 [Compound 349, N-[5-(difluoromethyl)-3-[1-(4-{4-[(1-{4-[(3R)-2,6-dioxopiperidin-3-yl]phenyl}piperidin-4-yl)methyl]piperazin-1-yl}phenyl)-3-(pyridin-4-yl)-1H-pyrazol-4-yl]-2-fluorophenyl]pyrrolidine-1-sulfonamide]
